{"source": "patent US8163935B2", "about": "“Fused heterocyclic compounds” (Takeda Pharmaceutical Company Limited, priority 2005, dated 2012)"}
{"units": {"melting point": "°C"}}
{"smiles": "CCCC(CCC)c1ccc(Cl)c2nc(Nc3cc(C(F)(F)F)c(OC)cc3OC)n(C)c12", "note": "[Example 123, 4-Chloro-N-[2,4-dimethoxy-5-(trifluoromethyl)phenyl]-1-methyl-7-(1-propylbutyl)-1H-benzimidazol-2-amine]", "melting point": "196 to 198"}
{"smiles": "CCC(CC)c1ccc(Cl)c2nc(Oc3c(Cl)cc(OC(F)(F)F)cc3Cl)n(C)c12", "note": "[Example 140, 4-Chloro-2-[2,6-dichloro-4-(trifluoromethoxy)phenoxy]-7-(1-ethylpropyl)-1-methyl-1H-benzimidazole]", "melting point": "145 to 147"}
{"smiles": "CCC(CC)c1ccc(C#N)c2nc(Nc3c(C)cc(Cl)cc3OC)n(C)c12", "note": "[Example 152, 2-[(4-Chloro-2-methoxy-6-methylphenyl)amino]-7-(1-ethylpropyl)-1-methyl-1H-benzimidazole-4-carbonitrile]", "melting point": "223 to 225"}
{"smiles": "CCC(CC)c1ccc(CO)c2nc(Oc3c(C)cc(Cl)cc3Cl)n(C)c12", "note": "[Example 154, [2-(2,4-Dichloro-6-methylphenoxy)-7-(1-ethylpropyl)-1-methyl-1H-benzimidazol-4-yl]methanol]", "melting point": "141 to 143"}
{"smiles": "CCC(CC)c1ccc(Cl)c2nc(Oc3c(C)cc(Cl)cc3C)n(C)c12", "note": "[Example 125, 4-Chloro-2-(4-chloro-2,6-dimethylphenoxy)-7-(1-ethylpropyl)-1-methyl-1H-benzimidazole]", "melting point": "168 to 169"}
{"smiles": "CCC(CC)c1ccc(Cl)c2nc(Nc3c(C)cc(Br)cc3C)n(C)c12", "note": "[Example 82, N-(4-Bromo-2,6-dimethylphenyl)-4-chloro-7-(1-ethylpropyl)-1-methyl-1H-benzimidazol-2-amine]", "melting point": "247 to 249"}
{"smiles": "CCCC(CCC)c1ccc(Cl)c2nc(Oc3c(C)cc(Br)cc3C)n(C)c12", "note": "[Example 131, 2-(4-Bromo-2,6-dimethylphenoxy)-4-chloro-1-methyl-7-(1-propylbutyl)-1H-benzimidazole]", "melting point": "155 to 157"}
{"smiles": "CCC(CC)c1ccc(Cl)c2nc(Oc3ccc(Cl)cc3Cl)n(C)c12", "note": "[Example 98, 4-Chloro-2-(2,4-dichlorophenoxy)-7-(1-ethylpropyl)-1-methyl-1H-benzimidazole]", "melting point": "87 to 89"}
{"smiles": "CCC(CC)c1ccc(C(F)(F)F)c2nc(Oc3ccc(Cl)cc3Br)n(C)c12", "note": "[Example 161, 2-(2-Bromo-4-chlorophenoxy)-7-(1-ethylpropyl)-1-methyl-4-(trifluoromethyl)-1H-benzimidazole]", "melting point": "119 to 120"}
{"smiles": "CCC(CC)c1ccc(C(F)(F)F)c2nc(Oc3c(C)cc(Cl)cc3Cl)n(C)c12", "note": "[Example 160, 2-(2,4-Dichloro-6-methylphenoxy)-7-(1-ethylpropyl)-1-methyl-4-(trifluoromethyl)-1H-benzimidazole]", "melting point": "149 to 151"}
{"smiles": "CCC(CC)c1ccc(Cl)c2nc(Oc3c(C)cc(C)cc3C)n(C)c12", "note": "[Example 99, 4-Chloro-7-(1-ethylpropyl)-2-(mesityloxy)-1-methyl-1H-benzimidazole]", "melting point": "137 to 139"}
{"smiles": "COc1cc(Cl)cc(C)c1Nc1nc2c(Cl)ccc(C(O)(C(C)(C)C)C(C)(C)C)c2n1C", "note": "[Example 106, 3-{4-Chloro-2-[(4-chloro-2-methoxy-6-methylphenyl)amino]-1-methyl-1H-benzimidazol-7-yl}-2,2,4,4-tetramethylpentan-3-ol]", "melting point": "246 to 248"}
{"smiles": "CCC(CC)c1ccc(O)c2nc(Oc3ccc(Cl)cc3Br)n(C)c12", "note": "[Example 147, 2-(2-Bromo-4-chlorophenoxy)-7-(1-ethylpropyl)-1-methyl-1H-benzimidazol-4-ol]", "melting point": "175 to 177"}
{"smiles": "CCCC(CCC)c1ccc(Cl)c2nc(Nc3c[nH]c(=O)cc3C)n(C)c12", "note": "[Example 116, 5-{[4-Chloro-1-methyl-7-(1-propylbutyl)-1H-benzimidazol-2-yl]amino}-4-methylpyridin-2(1H)-one]", "melting point": "237 to 239"}
{"smiles": "CCC(CC)c1ccc(Cl)c2nc(Nc3c(C)cc(Cl)cc3OC)n(CC(=O)OC(C)C)c12", "note": "[Example 102, Isopropyl[4-chloro-2-[(4-chloro-2-methoxy-6-methylphenyl)amino]-7-(1-ethylpropyl)-1H-benzimidazol-1-yl]acetate]", "melting point": "205 to 207"}
{"smiles": "CCC(CC)c1ccc(Cl)c2nc(Oc3c(Cl)cc(Cl)cc3Cl)n(C)c12", "note": "[Example 138, 4-Chloro-7-(1-ethylpropyl)-1-methyl-2-(2,4,6-trichlorophenoxy)-1H-benzimidazole]", "melting point": "155 to 157"}
{"smiles": "CCC(CC)c1ccc(C(F)(F)F)c2nc(Nc3ccc(Cl)cc3Br)n(C)c12", "note": "[Example 159, N-(2-Bromo-4-chlorophenyl)-7-(1-ethylpropyl)-1-methyl-4-(trifluoromethyl)-1H-benzimidazol-2-amine]", "melting point": "151 to 152"}
{"smiles": "CCCC(CCC)c1ccc(Cl)c2nc(Nc3cc(C(F)(F)F)c(Cl)cc3Cl)n(C)c12", "note": "[Example 113, 4-Chloro-N-[2,4-dichloro-5-(trifluoromethyl)phenyl]-1-methyl-7-(1-propylbutyl)-1H-benzimidazol-2-amine]", "melting point": "206 to 208"}
{"smiles": "CCC(CC)c1ccc(C#N)c2nc(Oc3c(C)cc(Cl)cc3Cl)n(C)c12", "note": "[Example 151, 2-(2,4-Dichloro-6-methylphenoxy)-7-(1-ethylpropyl)-1-methyl-1H-benzimidazole-4-carbonitrile]", "melting point": 192}
{"smiles": "CCCC(CCC)c1ccc(Cl)c2nc(Oc3ccc4c5c3CCN5C(=O)CC4)n(C)c12", "note": "[Example 134, 9-{[4-Chloro-1-methyl-7-(1-propylbutyl)-1H-benzimidazol-2-yl]oxy}-1,2,5,6-tetrahydro-4H-pyrrolo[3,2,1-ij]quinolin-4-one]", "melting point": "150 to 152"}
{"smiles": "COc1cc(Cl)cc(C)c1Nc1nc2c(Cl)ccc(C(O)(C(C)C)C(C)C)c2n1C", "note": "[Example 107, 3-{4-Chloro-2-[(4-chloro-2-methoxy-6-methylphenyl)amino]-1-methyl-1H-benzimidazol-7-yl}-2,4-dimethylpentan-3-ol]", "melting point": "218 to 219"}
{"smiles": "COc1cc(Cl)cc(C)c1Nc1nc2c(Cl)ccc(C(=O)C(C)(C)C)c2n1C", "note": "[Example 105, 1-{4-Chloro-2-[(4-chloro-2-methoxy-6-methylphenyl)amino]-1-methyl-1H-benzimidazol-7-yl}-2,2-dimethylpropan-1-one]", "melting point": "249 to 250"}
{"smiles": "CCCC(CCC)c1ccc(Cl)c2nc(Oc3c(OC)cc(C)cc3OC)n(C)c12", "note": "[Example 133, 4-Chloro-2-(2,6-dimethoxy-4-methylphenoxy)-1-methyl-7-(1-propylbutyl)-1H-benzimidazole]", "melting point": "203 to 205"}
{"smiles": "CCCC(CCC)c1ccc(Cl)c2nc(Oc3ccc(Br)cc3Cl)n(C)c12", "note": "[Example 128, 2-(4-Bromo-2-chlorophenoxy)-4-chloro-1-methyl-7-(1-propylbutyl)-1H-benzimidazole]", "melting point": "97 to 99"}
{"smiles": "CCCC(CCC)c1ccc(Cl)c2nc(Nc3cc(C(F)(F)F)ccc3OC)n(C)c12", "note": "[Example 112, 4-Chloro-N-[2-methoxy-5-(trifluoromethyl)phenyl]-1-methyl-7-(1-propylbutyl)-1H-benzimidazol-2-amine]", "melting point": "178 to 180"}
{"smiles": "CCC(CC)c1ccc(C#N)c2nc(Oc3ccc(Cl)cc3Br)n(C)c12", "note": "[Example 150, 2-(2-Bromo-4-chlorophenoxy)-7-(1-ethylpropyl)-1-methyl-1H-benzimidazole-4-carbonitrile]", "melting point": "136 to 137"}
{"smiles": "CCC(CC)c1ccc(Cl)c2nc(Nc3c(C)cc(Cl)cc3C)n(C)c12", "note": "[Example 83, 4-Chloro-N-(4-chloro-2,6-dimethylphenyl)-7-(1-ethylpropyl)-1-methyl-1H-benzimidazol-2-amine]", "melting point": "247 to 249"}
{"smiles": "CCC(CC)c1ccc(Cl)c2nc(Oc3c(N(C)C)cc(C)nc3C)n(C)c12", "note": "[Example 141, 3-{[4-Chloro-7-(1-ethylpropyl)-1-methyl-1H-benzimidazol-2-yl]oxy}-N,N,2,6-tetramethylpyridin-4-amine]", "melting point": "175 to 177"}
{"smiles": "CCCC(CCC)c1ccc(Cl)c2nc(Nc3cccc4c3CCCC4)n(C)c12", "note": "[Example 117, 4-Chloro-1-methyl-7-(1-propylbutyl)-N-(5,6,7,8-tetrahydronaphthalen-1-yl)-1H-benzimidazol-2-amine]", "melting point": "236 to 238"}
{"smiles": "CCC(CC)c1ccc(Cl)c2nc(Nc3ccc(Br)cc3Cl)n(C)c12", "note": "[Example 85, N-(4-Bromo-2-chlorophenyl)-4-chloro-7-(1-ethylpropyl)-1-methyl-1H-benzimidazol-2-amine]", "melting point": "127 to 129"}
{"smiles": "CCC(CC)c1ccc(Cl)c2nc(Nc3ccc(Cl)cc3Cl)n(C)c12", "note": "[Example 80, 4-Chloro-N-(2,4-dichlorophenyl)-7-(1-ethylpropyl)-1-methyl-1H-benzimidazol-2-amine]", "melting point": "130 to 132"}
{"smiles": "CCC(CC)c1ccc(Cl)c2nc(Nc3cnc(N(C)C)cc3C)n(C)c12", "note": "[Example 88, N^5-[4-Chloro-7-(1-ethylpropyl)-1-methyl-1H-benzimidazol-2-yl]-N^2,N^2,4-trimethylpyridine-2,5-diamine]", "melting point": "224 to 226"}
{"smiles": "CCC(CC)c1ccc(Cl)c2nc(Oc3c(C)cc(Br)cc3C)n(C)c12", "note": "[Example 137, 2-(4-Bromo-2,6-dimethylphenoxy)-4-chloro-7-(1-ethylpropyl)-1-methyl-1H-benzimidazole]", "melting point": "197 to 198"}
{"smiles": "CCC(CC)c1ccc(Cl)c2nc(Nc3ccc(C(F)(F)F)cc3Cl)n(C)c12", "note": "[Example 95, 4-Chloro-N-[2-chloro-4-(trifluoromethyl)phenyl]-7-(1-ethylpropyl)-1-methyl-1H-benzimidazol-2-amine]", "melting point": "128 to 129"}
{"smiles": "CCC(CC)c1ccc(Cl)c2nc(Nc3ccc(Cl)cc3OC(F)(F)F)n(C)c12", "note": "[Example 81, 4-Chloro-N-[4-chloro-2-(trifluoromethoxy)phenyl]-7-(1-ethylpropyl)-1-methyl-1H-benzimidazol-2-amine]", "melting point": "126 to 128"}
{"smiles": "CCC(CC)c1cc(Br)cc2nc(Oc3c(C)cc(Cl)cc3C)n(C)c12", "note": "[Example 136, 5-Bromo-2-(4-chloro-2,6-dimethylphenoxy)-7-(1-ethylpropyl)-1-methyl-1H-benzimidazole]", "melting point": "214 to 216"}
{"smiles": "CCCC(CCC)c1ccc(Cl)c2nc(Oc3c(Cl)cc(Cl)cc3Cl)n(C)c12", "note": "[Example 132, 4-Chloro-1-methyl-7-(1-propylbutyl)-2-(2,4,6-trichlorophenoxy)-1H-benzimidazole]", "melting point": "148 to 150"}
